± gives the expanded uncertainty stated by the source.
Experiment: xn = mol fraction of the nth substance listed
Details: Constant-volume piezometry

A mass density (563.15 K, 15195 kPa, Fluid (supercritical or subcritical phases), x1 = 0.9) of 353.41 ± 1.8 kg/m3, a mass density (563.15 K, 15944 kPa, Fluid (supercritical or subcritical phases), x1 = 0.8) of 361.2 ± 1.8 kg/m3 and a mass density (563.15 K, 20883 kPa, Fluid (supercritical or subcritical phases), x1 = 0.2) of 469.34 ± 2.4 kg/m3 were found for CCCCC [pentane] + CCCO in this work. For the same compound, the mass density (563.15 K, 22608 kPa, Fluid (supercritical or subcritical phases), x1 = 0.9) was 406.44 ± 2 kg/m3, the mass density (563.15 K, 23762 kPa, Fluid (supercritical or subcritical phases), x1 = 0.8) was 417.33 ± 2.1 kg/m3 and the mass density (563.15 K, 29039 kPa, Fluid (supercritical or subcritical phases), x1 = 0.2) was 508.42 ± 2.6 kg/m3. The mass density (563.15 K, 36842 kPa, Fluid (supercritical or subcritical phases), x1 = 0.8) was 465.69 ± 2.4 kg/m3, the mass density (563.15 K, 41493 kPa, Fluid (supercritical or subcritical phases), x1 = 0.2) was 545.72 ± 2.8 kg/m3 and the mass density (573.15 K, 1455 kPa, Gas, x1 = 0.8) was 22.47 ± 0.07 kg/m3. For the same compound, the mass density (573.15 K, 1761 kPa, Gas, x1 = 0.2) was 24.87 ± 0.08 kg/m3, the mass density (573.15 K, 2249 kPa, Gas, x1 = 0.8) was 36.6 ± 0.11 kg/m3 and the mass density (573.15 K, 3350 kPa, Gas, x1 = 0.8) was 58.27 ± 0.18 kg/m3. For the same compound, the mass density (573.15 K, 3774 kPa, Gas, x1 = 0.2) was 52.88 ± 0.16 kg/m3, the mass density (573.15 K, 4034 kPa, Fluid (supercritical or subcritical phases), x1 = 0.8) was 73.62 ± 0.37 kg/m3 and the mass density (573.15 K, 4329 kPa, Fluid (supercritical or subcritical phases), x1 = 0.9) was 83.18 ± 0.42 kg/m3. It also gave a mass density (573.15 K, 5099 kPa, Fluid (supercritical or subcritical phases), x1 = 0.2) of 91.19 ± 0.46 kg/m3, a mass density (573.15 K, 5320 kPa, Fluid (supercritical or subcritical phases), x1 = 0.8) of 106.15 ± 0.54 kg/m3 and a mass density (573.15 K, 5748 kPa, Fluid (supercritical or subcritical phases), x1 = 0.9) of 123.05 ± 0.62 kg/m3. For the same compound, the mass density (573.15 K, 5856 kPa, Fluid (supercritical or subcritical phases), x1 = 0.2) was 114.08 ± 0.58 kg/m3, the mass density (573.15 K, 6139 kPa, Fluid (supercritical or subcritical phases), x1 = 0.9) was 133.8 ± 0.68 kg/m3 and the mass density (573.15 K, 6637 kPa, Fluid (supercritical or subcritical phases), x1 = 0.8) was 139.97 ± 0.71 kg/m3. For the same compound, the mass density (573.15 K, 6909 kPa, Fluid (supercritical or subcritical phases), x1 = 0.2) was 149.98 ± 0.76 kg/m3, the mass density (573.15 K, 7024 kPa, Fluid (supercritical or subcritical phases), x1 = 0.9) was 163.56 ± 0.83 kg/m3 and the mass density (573.15 K, 7062 kPa, Fluid (supercritical or subcritical phases), x1 = 0.8) was 155.67 ± 0.79 kg/m3. It also gave a mass density (573.15 K, 7474 kPa, Fluid (supercritical or subcritical phases), x1 = 0.8) of 169.37 ± 0.86 kg/m3, a mass density (573.15 K, 7491 kPa, Fluid (supercritical or subcritical phases), x1 = 0.2) of 175.18 ± 0.9 kg/m3 and a mass density (573.15 K, 7658 kPa, Fluid (supercritical or subcritical phases), x1 = 0.8) of 175.6 ± 0.89 kg/m3. The mass density (573.15 K, 7755 kPa, Fluid (supercritical or subcritical phases), x1 = 0.2) was 189.17 ± 0.97 kg/m3, the mass density (573.15 K, 7776 kPa, Fluid (supercritical or subcritical phases), x1 = 0.8) was 180.39 ± 0.91 kg/m3 and the mass density (573.15 K, 7805 kPa, Fluid (supercritical or subcritical phases), x1 = 0.9) was 188.99 ± 0.96 kg/m3. For the same compound, the mass density (573.15 K, 8168 kPa, Fluid (supercritical or subcritical phases), x1 = 0.8) was 192.69 ± 0.98 kg/m3, the mass density (573.15 K, 8184 kPa, Fluid (supercritical or subcritical phases), x1 = 0.9) was 201.88 ± 1 kg/m3 and the mass density (573.15 K, 8351 kPa, Fluid (supercritical or subcritical phases), x1 = 0.2) was 219.55 ± 1.1 kg/m3. For the same compound, the mass density (573.15 K, 8805 kPa, Fluid (supercritical or subcritical phases), x1 = 0.9) was 220.14 ± 1.1 kg/m3, the mass density (573.15 K, 8815 kPa, Fluid (supercritical or subcritical phases), x1 = 0.8) was 213.33 ± 1.1 kg/m3 and the mass density (573.15 K, 8859 kPa, Fluid (supercritical or subcritical phases), x1 = 0.2) was 244.86 ± 1.2 kg/m3. It also gave a mass density (573.15 K, 9002 kPa, Fluid (supercritical or subcritical phases), x1 = 0.8) of 219.08 ± 1.1 kg/m3, a mass density (573.15 K, 9138 kPa, Fluid (supercritical or subcritical phases), x1 = 0.2) of 258.55 ± 1.3 kg/m3 and a mass density (573.15 K, 9198 kPa, Fluid (supercritical or subcritical phases), x1 = 0.9) of 232.49 ± 1.2 kg/m3. The mass density (573.15 K, 9211 kPa, Fluid (supercritical or subcritical phases), x1 = 0.2) was 262.25 ± 1.3 kg/m3, the mass density (573.15 K, 9316 kPa, Fluid (supercritical or subcritical phases), x1 = 0.9) was 235.95 ± 1.2 kg/m3 and the mass density (573.15 K, 9432 kPa, Fluid (supercritical or subcritical phases), x1 = 0.2) was 271.68 ± 1.4 kg/m3. It also gave a mass density (573.15 K, 9453 kPa, Fluid (supercritical or subcritical phases), x1 = 0.9) of 240.34 ± 1.2 kg/m3, a mass density (573.15 K, 9462 kPa, Fluid (supercritical or subcritical phases), x1 = 0.8) of 234.13 ± 1.2 kg/m3 and a mass density (573.15 K, 9562 kPa, Fluid (supercritical or subcritical phases), x1 = 0.9) of 243.64 ± 1.2 kg/m3. The mass density (573.15 K, 9806 kPa, Fluid (supercritical or subcritical phases), x1 = 0.8) was 244.74 ± 1.2 kg/m3, the mass density (573.15 K, 9864 kPa, Fluid (supercritical or subcritical phases), x1 = 0.2) was 289.81 ± 1.5 kg/m3 and the mass density (573.15 K, 10272 kPa, Fluid (supercritical or subcritical phases), x1 = 0.2) was 306.05 ± 1.6 kg/m3. The mass density (573.15 K, 10324 kPa, Fluid (supercritical or subcritical phases), x1 = 0.8) was 257.93 ± 1.3 kg/m3, the mass density (573.15 K, 10392 kPa, Fluid (supercritical or subcritical phases), x1 = 0.2) was 310.27 ± 1.6 kg/m3 and the mass density (573.15 K, 10713 kPa, Fluid (supercritical or subcritical phases), x1 = 0.2) was 317.97 ± 1.6 kg/m3. The mass density (573.15 K, 10865 kPa, Fluid (supercritical or subcritical phases), x1 = 0.8) was 271.86 ± 1.4 kg/m3, the mass density (573.15 K, 11108 kPa, Fluid (supercritical or subcritical phases), x1 = 0.9) was 281.31 ± 1.4 kg/m3 and the mass density (573.15 K, 11531 kPa, Fluid (supercritical or subcritical phases), x1 = 0.2) was 340.39 ± 1.7 kg/m3. For the same compound, the mass density (573.15 K, 11654 kPa, Fluid (supercritical or subcritical phases), x1 = 0.2) was 343.17 ± 1.7 kg/m3, the mass density (573.15 K, 11678 kPa, Fluid (supercritical or subcritical phases), x1 = 0.8) was 287.66 ± 1.4 kg/m3 and the mass density (573.15 K, 12021 kPa, Fluid (supercritical or subcritical phases), x1 = 0.9) was 300.93 ± 1.5 kg/m3. For the same compound, the mass density (573.15 K, 12217 kPa, Fluid (supercritical or subcritical phases), x1 = 0.8) was 298.45 ± 1.5 kg/m3, the mass density (573.15 K, 12707 kPa, Fluid (supercritical or subcritical phases), x1 = 0.9) was 311.54 ± 1.6 kg/m3 and the mass density (573.15 K, 13246 kPa, Fluid (supercritical or subcritical phases), x1 = 0.8) was 314.57 ± 1.6 kg/m3. It also gave a mass density (573.15 K, 13392 kPa, Fluid (supercritical or subcritical phases), x1 = 0.2) of 377.65 ± 1.9 kg/m3, a mass density (573.15 K, 13687 kPa, Fluid (supercritical or subcritical phases), x1 = 0.2) of 382.44 ± 1.9 kg/m3 and a mass density (573.15 K, 14239 kPa, Fluid (supercritical or subcritical phases), x1 = 0.9) of 333.19 ± 1.7 kg/m3. It also gave a mass density (573.15 K, 14284 kPa, Fluid (supercritical or subcritical phases), x1 = 0.2) of 390.25 ± 2 kg/m3, a mass density (573.15 K, 14505 kPa, Fluid (supercritical or subcritical phases), x1 = 0.8) of 333.01 ± 1.7 kg/m3 and a mass density (573.15 K, 15392 kPa, Fluid (supercritical or subcritical phases), x1 = 0.8) of 344.5 ± 1.7 kg/m3. It also gave a mass density (573.15 K, 16409 kPa, Fluid (supercritical or subcritical phases), x1 = 0.9) of 353.22 ± 1.8 kg/m3, a mass density (573.15 K, 16662 kPa, Fluid (supercritical or subcritical phases), x1 = 0.2) of 417.59 ± 2.1 kg/m3 and a mass density (573.15 K, 17250 kPa, Fluid (supercritical or subcritical phases), x1 = 0.8) of 361.01 ± 1.8 kg/m3. The mass density (573.15 K, 23293 kPa, Fluid (supercritical or subcritical phases), x1 = 0.2) was 469.08 ± 2.4 kg/m3, the mass density (573.15 K, 24391 kPa, Fluid (supercritical or subcritical phases), x1 = 0.9) was 406.23 ± 2 kg/m3 and the mass density (573.15 K, 25613 kPa, Fluid (supercritical or subcritical phases), x1 = 0.8) was 417.11 ± 2.1 kg/m3. For the same compound, the mass density (573.15 K, 32252 kPa, Fluid (supercritical or subcritical phases), x1 = 0.2) was 508.13 ± 2.6 kg/m3 and the mass density (573.15 K, 39390 kPa, Fluid (supercritical or subcritical phases), x1 = 0.8) was 465.43 ± 2.4 kg/m3.

From the NIST ThermoML archive (doi:10.1016/j.jct.2016.10.023)
